In US20240158339A1, “TYRAMINE CONTAINING HYDROXYCINNAMIC ACID AMIDE DERIVATIVES AND METHODS OF USE THEREOF” (Brightseed, Inc., priority 2018, published 2024):
Entries after “also recorded” stand apart in the source; their conditions may differ.

Key:
[1] = tested on: HNF4α mRNA; assay: HNF4α mRNA levels by quantitative PCR; format: cell-based; settings: FIG. 3
Protocol: (§1) Expression of Insulin and HNF4α. RNA was purified using a RNEASY® chromatographic separation and isolation kits (Qiagen), and converted to cDNA using the gScript™ cDNA SuperMix (Quanta Biosciences). Q-PCR was conducted with cDNA corresponding to 2 μg of RNA using an Opticon Real-Time System (MJ Research) and QPCR SuperMix (BioPioneer). See All mRNA values were normalized to 18S rRNA values and are expressed as fold changes over vehicle-treated control.

[2] = molecular target: T1, HNF4α (Homo sapiens, UniProt P41235); assay: Insulin promoter activity assay (HNF4α assay) in T6PNE cells; format: cell-based; settings: for HNF4α activation / bioactivity (screening result in words): HNF4α assay, screening and SAR statements
T1 construct: T6PNE cells (Kiselyuk, et al. (2012) Chem. Biol. 19(7):806-818; Kiselyuk, et al. (2010) J. Biomol; endogenous in cells; host or cells: T6PNE cells
T1 sequence (P41235 1-474): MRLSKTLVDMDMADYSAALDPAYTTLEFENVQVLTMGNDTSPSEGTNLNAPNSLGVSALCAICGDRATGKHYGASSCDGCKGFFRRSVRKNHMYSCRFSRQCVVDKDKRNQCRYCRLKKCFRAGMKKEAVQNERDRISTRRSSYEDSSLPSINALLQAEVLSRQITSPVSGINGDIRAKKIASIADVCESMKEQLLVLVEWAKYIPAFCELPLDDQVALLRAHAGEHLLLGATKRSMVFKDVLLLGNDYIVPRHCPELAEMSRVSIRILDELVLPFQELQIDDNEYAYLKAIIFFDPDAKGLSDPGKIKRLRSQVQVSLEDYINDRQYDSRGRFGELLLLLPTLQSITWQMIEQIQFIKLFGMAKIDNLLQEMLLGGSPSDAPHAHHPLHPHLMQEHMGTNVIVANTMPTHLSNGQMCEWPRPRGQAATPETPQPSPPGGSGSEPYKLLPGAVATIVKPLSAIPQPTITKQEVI
Protocol: Insulin Promoter Activity. T6PNE cells (Kiselyuk, et al. (2012) Chem. Biol. 19(7):806-818; Kiselyuk, et al. (2010) J. Biomol. Screen 15(6):663-70) are seeded at 2000 cells per well in 384-well tissue culture plates in the presence of 1 μM tamoxifen and 0.03 mM palmitate. After a 24-hour incubation, a compound of the invention is added to the cells. Forty-eight hours after compound addition, cells are fixed in 4% paraformaldehyde and stained with DAPI. Blue (DAPI) and green (human insulin promoter driving GFP) channels are imaged.
Inhibition of HNF4α GFP Expression. Using the insulin promoter assay described herein, activity of HNF4α was assessed in the presence of BI-6015 (0, 2.5, 5 μM), a known antagonist of HNF4α (Kiselyuk, et al. (2012) Chem. Biol. 19(7):806-818), in combination with N-trans-caffeoyltyramine (0, 5, 10, 20 μM).
Given the role of HNF4α in maintaining a health metabolism in humans, test compounds were screened for activity as HNF4α agonists (either direct or indirect effects). Using a known insulin promoter-reporter assay Kiselyuk and colleagues (2010. J. Biomol. Screen 15(6):663-70) screened a library of compounds for activity to promote insulin activation. […] The OTC promoter is known to be responsive to HNF4α in transient transfection assays (Inoue, et al. (2002) J. Biol. Chem. 277:25257-65).
Plant compounds in the top 10th percentile of similarity to the 18 target structures were selected and compounds predicted to be potential agonists of HNF4α activity given their chemical structural features were screened in the HNF4α assay.

[3] = tested on: T6PNE cells; assay: Lipid clearance (steatosis assay) in T6PNE cells; format: cell-based; settings: for fat accumulation: T6PNE cells, 0.25 mM palmitate, 10 μM compound
Protocol: T6PNE cells were pretreated for 1 day with 0.06 mM, 0.12 mM or 0.25 mM palmitate at which time 15 μM N-trans-caffeoyltyramine or control (DMSO) was added. Cells were harvested on day 3, 6 and 8 and subjected to staining with Nile Red and […]. Results are expressed as fold change in Nile Red staining: +palmitate/10% FBS medium (no palmitate).
(§2) Lipid Clearance in HepG2 and T6PNE Cells (Steatosis Assay). The steatosis assay was carried out as described (Kiselyuk, et al. (2012) Chem. Biol. 19(7):806-818) with the exception of the drug concentration, which was 20 μM for N-trans-caffeoyltyramine with 0.25 mM palmitate in HepG2 cell lines, and 10 μM of either N-trans-caffeoyltyramine, N-trans-caffeoyltyramine, or p-coumaroyltyramine, with 0.25 mM palmitate in T6PNE cell lines. Steatosis was assessed using the Oil Red O Method for Fats kits (Poly Scientific; Warrington, PA), per manufacturer's guidelines. Briefly, frozen tissue slides or fixed cells were incubated in neat propylene glycol for 2 minutes and Oil Red O solution for […] for slides or 1 hour for fixed cells, differentiated in 85% propylene glycol solution for 1 minute, washed twice with distilled water and stained in Hematoxylin of 10 seconds. Slides were mounted with glycerin jelly mounting medium.

[4] = tested on: insulin mRNA; assay: Insulin mRNA levels by quantitative PCR; format: cell-based; settings: FIG. 2
Protocol: as §1

[5] = Bioavailability determination in male C57BL/6 mice; settings: IV 2 mg/kg vs oral or IP 30 mg/kg, route not stated in Table 3
[6] = tested on: E47MER; assay: Counter-screen for estrogenic activity (E47MER luciferase reporter in HeLa cells); format: cell-based, human; settings: with 1 μM or without tamoxifen, FIG. 5
Protocol: Counter-Screen for Estrogenic Activity. Estrogenic activity was monitored by co-transfection of a reporter plasmid containing a multimerized E-box 5′ of a minimal promoter fused to the Firefly luciferase gene with wild-type E47 or E47MER (Kiselyuk, et al. (2010) J. Biomol. Screen 15(6):663-70). HeLa cells were transfected using polyethylenimine, 0.2 μg 4RTK-Luc plasmid and either 0.3 μg of human E47, E47MER or pMSCVhph vector in 50 μl of serum-free Dulbecco's modification of Eagle medium per well. Transfections included Renilla luciferase (pRL-TK) plasmid as a control for transfection efficacy. Transfection conditions were as described in the PPRE-Luc reporter assay of Kiselyuk, et al. ((2010) J. Biomol. Screen 15(6):663-70). Sixteen hours after transfection, culture media were changed and maintained for 48 hours with tamoxifen and/or compound or vehicle (DMSO). Cells were then lysed and assayed for luciferase activity using the Promega DUAL-LUCIFERASE® reporter assay kit (Promega Corp., Madison, WI), and luminescence was measured using the Veritas™ Microplate Luminometer (Turner Biosystems, Sunnyvale, CA). Data were normalized to Renilla luciferase (pRL-TK) and expressed as fold-change over vehicle alone.

[7] = pH stability assessment; format: physicochemical; settings: pH 2, 7.4, 8.5 and 10, 37° C., 0.5 vs 72 hours
Protocol: pH Stability Assessment. Individual stock solutions were prepared in DMSO at concentrations of 10 mg/mL. Four different buffer solution s were prepared to achieve solutions with a pH of 2, 7.4, 8.5 and 10. For each pH assay, 5 μL of stock solution was added to 245 μL of buffered solution to a 2 mL tube, vortexed and incubated in a 37° C. water bath. At each timepoint, 50 μL aliquots were taken, neutralized and analyzed via HPLC analysis using a DAD detector at 280 nm. The fold change of the peak area at 280 nm was analyzed for the initial and final timepoint, 0.5 and 72 hours, respectively.

[8] = tested on: HepG2 cells; assay: Lipid clearance (steatosis assay) in HepG2 cells; format: cell-based; settings: HepG2 liver cells, 20 μM
Protocol: as §2

**Q.** With `O=C(/C=C/c1ccc(O)cc1)NCCc1ccc(O)cc1` [p-coumaroyltyramine] as the molecule, how does the HNF4α gene expression [1] read?
**A.** The HNF4α gene expression was “upregulated”.

**Q.** And the “HNF4α activation / bioactivity (screening result in words)” value (from here on “HNF4α activation / bioactivity”) [2]?
**A.** The value was “able to act as HNF4α modulators”.

**Q.** What about the “HNF4α activation / bioactivity” value ([2]; listed as N-trans-coumaroyltyramine) of the same molecule?
**A.** Its value is “additional reduction but not eradication of bioactivity”.

**Q.** What about the fat accumulation [3] of the same molecule?
**A.** Its fat accumulation is “inhibition of fat accumulation”.

**Q.** And the insulin gene expression [4]?
**A.** Its insulin gene expression is “upregulated”.

**Q.** Which results are given for `O=C(/C=C/c1ccc(O)cc1)NCC(O)c1ccc(O)cc1` (centres unmarked) [p-coumaroyloctopamine]?
**A.** HNF4α gene expression [1]: inactive; insulin gene expression [4]: inactive

**Q.** What does the source list for `COc1cc(/C=C\C(=O)NCCc2ccc(O)cc2)ccc1O` [cis-feruloyltyramine]?
**A.** HNF4α gene expression [1]: inactive; HNF4α activation / bioactivity (screening result in words) [2]: complete loss of HNF4α activation; insulin gene expression [4]: inactive

**Q.** For `Cc1ccc([N+](=O)[O-])cc1S(=O)(=O)n1c(C)nc2ccccc21` [BI-6015, reference compound], which “effect on N-trans-caffeoyltyramine-mediated increases in insulin expression” value ([2]; BI-6015 0, 2.5, 5 μM with N-trans-caffeoyltyramine 0, 5, 10, 20 μM, FIG. 4) is on record?
**A.** The value was “inhibited”.

**Q.** For `O=C(C=Cc1ccccc1)NCCc1ccccc1` [N-2-phenylethylcinnamide], which “HNF4α activation / bioactivity” value [2] is on record?
**A.** Its value is “complete loss of bioactivity”.

**Q.** For `COc1cc(/C=C/C(=O)NCCc2ccc(O)cc2)ccc1O` [N-trans-feruloyltyramine], which HNF4α gene expression [1] is on record?
**A.** Its HNF4α gene expression is “upregulated”.

**Q.** And the bioavailability [5]?
**A.** The bioavailability was ~7%.

**Q.** And the estrogenic activity [6]?
**A.** The estrogenic activity was “did not exhibit estrogenic activity”.

**Q.** What about the “HNF4α activation / bioactivity” value [2] of the same molecule?
**A.** Its value is “able to act as HNF4α modulators; also recorded: reduces but does not eradicate bioactivity”.

**Q.** And the “pH Stability” value [7]?
**A.** The value was “Stable”.

**Q.** And the “clearing of fats, Oil Red O staining” value [8]?
**A.** The value was “capable of clearing harmful fats from the liver”.

**Q.** What about the accumulation of fats ([8]; 0.25 mM palmitate) of the same molecule?
**A.** Its accumulation of fats is “inhibited accumulation of fats”.

**Q.** What about the “lipid accumulation when palmitate was added prior to compound” value ([3]; T6PNE cells pretreated 1 day with 0.06-0.25 mM palmitate, 15 μM compound, Nile Red, FIG. 6) of the same molecule?
**A.** The value was “can reverse fat accumulation”.

**Q.** And the fat accumulation [3]?
**A.** Its fat accumulation is “inhibition of fat accumulation”.

**Q.** And the insulin gene expression [4]?
**A.** The insulin gene expression was “upregulated”.

**Q.** Which “HNF4α activation / bioactivity” value [2] does the source give for `O=C(C=CCCc1ccccc1)CCc1ccccc1` [1,7-diphenylhept-4-en-3-one] here?
**A.** Its value is “complete loss of bioactivity”.

**Q.** Which results are given for `O=C(/C=C/c1ccc(O)cc1)NCCc1ccc(O)c(O)c1` [N-coumaroyldopamine]?
**A.** HNF4α gene expression [1]: inactive; HNF4α activation / bioactivity (screening result in words) [2]: complete loss of HNF4α activation; insulin gene expression [4]: inactive

**Q.** What does the source list for `COc1cc(/C=C/C(=O)NCC(O)c2ccc(O)cc2)ccc1O` (stereo not drawn) [N-trans-feruloyloctopamine]?
**A.** HNF4α gene expression [1]: inactive; HNF4α activation / bioactivity (screening result in words) [2]: complete loss of HNF4α activation; insulin gene expression [4]: inactive
